From patent US10098894B2, “Transdermal cream” (TherapeuticsMD, Inc., priority 2014, dated 2018)
Values after ≈ are worked out from the molar mass of the structure shown. Read-outs that look alike come from different tables or passages of the source.

Key:
[1] = test system: endometrium and vagina in ovariectomized rats; experiment: Estradiol-induced endometrium proliferation in ovariectomized rats (uterine weight, histology, histomorphometry); type: in vivo, rat; conditions: for Uterine weight compared to estradiol-only treatment group: Days 4-8, with estradiol
Experimental: Thirty-two 8-week-old, female, Crl:CD® rats underwent ovariectomy 2 weeks prior to the start of the study. Rats were randomly assigned to 4 groups of 8 rats each. Three of the groups received 3 μg/kg/day estradiol, subcutaneously (SC), for 8 days as well as a placebo cream, 10 mg/kg/day progesterone, SC, or 3.125 mg/day progesterone transdermally beginning on Day 4. The fourth group received saline, SC for 8 days and placebo cream beginning on Day 4. Two hours after the final dose on Day 8, the rats were humanely euthanized, uterine weights were measured, and the vagina and distal portions of the uterine horns were fixed and processed for histology and computer-aided morphometry. Study parameters are outlined in Table 22.

[2] = Progesterone solubility study in different solvent systems; type: physicochemical; conditions: thermodynamic from solid, room temperature, visual
Experimental: Solubility of progesterone was determined on a visual basis by adding progesterone incrementally to a certain quantity of solvent at room temperature until a supersaturated solution was formed.

[3] = Exposure, tissue distribution and metabolite profile (progesterone, ALLO, ALLO-sulfate in plasma, salivary gland, uterus) in ovariectomized rats; type: in vivo; conditions: for Kp at 2 h: female, Crl:CD, uterus/plasma, read-out: Ratio of progesterone levels in the uterus to plasma; for Mean progesterone level in plasma / Mean progesterone level in salivary gland / Mean progesterone level in uterus: 2 hours after final dose Day 8
Experimental: Thirty-two 8-week-old, female, Crl:CD® rats underwent ovariectomy 2 weeks prior to study start. […] Plasma and tissue homogenates were analyzed for progesterone, ALLO, and ALLO-sulfate using LC-MS/MS.

[4] = Progesterone solubility study in different solvent systems; type: physicochemical; conditions: oil or lipid, thermodynamic from solid; in CAPRYOL 90; solubility determined by HPLC

C[C@]12CC[C@@H]3c4ccc(O)cc4CC[C@H]3[C@@H]1CC[C@@H]2O [estradiol, (17β)-estra-1,3,5(10)-triene-3,17-diol]
Effect of unopposed estradiol treatment on the uterus (organ weight, histology) ([1]; 3 μg/kg/day SC, 8 days): hypertrophy

CC(=O)[C@H]1CC[C@H]2[C@@H]3CCC4=CC(=O)CC[C@]4(C)[C@H]3CC[C@]12C [progesterone, pregn-4-ene-3,20-dione]
solubility ([2]; aqueous with cosolvent or surfactant or cyclodextrin, in 5% SLS): 6.6 mg/mL (≈ 21 mM)
solubility ([2]; oil or lipid, in CAPRYOL PGMC): 82 mg/mL (≈ 261 mM)
solubility ([2]; oil or lipid, in GLYCEROX 767): 22.2 mg/mL (≈ 70.6 mM)
solubility ([2]; oil or lipid, in LABRAFAC PG): 41 mg/mL (≈ 130 mM)
solubility ([2]; oil or lipid, in LAUROGLYCOL 90): 90.2 mg/mL (≈ 287 mM)
solubility ([2]; oil or lipid, in LAUROGLYCOL FCC): 60 mg/mL (≈ 191 mM)
solubility ([2]; oil or lipid, in MIGLYOL 812 + D-L α Tocopherol Care (85:15)): 38.2 mg/mL
solubility ([2]; oil or lipid, in MIGLYOL 812 + D-L α Tocopherol Care (95:5)): 20.1 mg/mL
solubility ([2]; oil or lipid, in MIGLYOL 812 + LABRAFAC PG (50:50)): 25.7 mg/mL
solubility ([2]; oil or lipid, in MIGLYOL 812 + LAUROGLYCOL 90 (25:75)): 47 mg/mL
solubility ([2]; oil or lipid, in MIGLYOL 812 + LAUROGLYCOL 90 (50:50)): 58.9 mg/mL
solubility ([2]; oil or lipid, in MIGLYOL 812 + TRANSCUTOL (92.5:7.5)): 40.2 mg/mL
solubility ([2]; oil or lipid, in MIGLYOL 812 + TRANSCUTOL (95:5)): 40.5 mg/mL
solubility ([2]; oil or lipid, in MIGLYOL 812 + Vitamin E TPGS (91:9)): 45.2 mg/mL
solubility ([2]; oil or lipid, in MIGLYOL 812): 25 mg/mL (≈ 79.5 mM)
solubility ([2]; oil or lipid, in MIGLYOL 829): 41.3 mg/mL (≈ 131 mM)
solubility ([2]; oil or lipid, in MIGLYOL 840): 41.7 mg/mL (≈ 133 mM)
solubility ([2]; oil or lipid, in Oleic Acid): 62.2 mg/mL (≈ 198 mM)
solubility ([2]; oil or lipid, in Oleyl Alcohol): 41.2 mg/mL (≈ 131 mM)
solubility ([2]; organic solvent or mixture, in Absolute Alcohol): 57 mg/mL (≈ 181 mM)
solubility ([2]; organic solvent or mixture, in Dimethyl Isosorbide): 92 mg/mL (≈ 293 mM)
solubility ([2]; organic solvent or mixture, in Propylene Glycol): 10.5 mg/mL (≈ 33.4 mM)
solubility ([2]; organic solvent or mixture, in TRANSCUTOL): 60.3 mg/mL (≈ 192 mM)
solubility ([2]; organic solvent or mixture, in d-Limonene + TRANSCUTOL (25:75)): 95.6 mg/mL
solubility ([2]; organic solvent or mixture, in d-Limonene + TRANSCUTOL (40:60)): 102 mg/mL
solubility ([2]; organic solvent or mixture, in d-Limonene + TRANSCUTOL (50:50)): 100 mg/mL
solubility ([2]; organic solvent or mixture, in d-Limonene): 204 mg/mL (≈ 649 mM)
Endometrial gland density, transdermal as compared to SC progesterone [1]: significant increase
Uterine weight compared to estradiol-only treatment group ([1]; progesterone 3.125 mg/day transdermally (formulation of Table 16)): pronounced reduction
Uterine weight compared to estradiol-only treatment group ([1]; progesterone 10 mg/kg/day SC): pronounced reduction
Endometrial gland density compared to unopposed estradiol ([1]; progesterone SC): significant increase
Luminal epithelial cell thickness compared to unopposed estradiol ([1]; progesterone SC): significant reduction
Estrogen-specific cellular aspects in uterus and vagina (histology) ([1]; progesterone SC with estradiol): not detected
Endometrial gland density compared to unopposed estradiol ([1]; progesterone transdermally): significant increase
Luminal epithelial cell thickness compared to unopposed estradiol ([1]; progesterone transdermally): significant reduction
Estrogen-specific cellular aspects in uterus and vagina (histology) ([1]; progesterone transdermally with estradiol): not detected
Kp at 2 h ([3]; 10 mg/kg/day, rat, SC route): 7.3
Kp at 2 h ([3]; topical, 3.13 mg/rat/day, transdermal route): 12
Mean progesterone level in plasma ([3]; rat, SC administration): 5.4 ng/mL/mg dose
Mean progesterone level in salivary gland ([3]; rat, SC administration): 5.9 ng/mL/mg dose
Mean progesterone level in uterus ([3]; rat, SC administration): 39 ng/mL/mg dose
Levels of ALLO in the plasma, comparison of both routes of administration ([3]; rat, SC vs topical): similar
Sum of plasma levels of ALLO and ALLO-sulfate relative to plasma level of progesterone ([3]; rat, after topical dosing): equivalent
Mean tissue levels of ALLO and ALLO-sulfate, SC administration compared to topical administration ([3]; rat, all instances): higher
Mean progesterone level in plasma ([3]; rat, topical administration (Table 16 formulation)): 2.0 ng/mL/mg dose
Mean progesterone level in salivary gland ([3]; rat, topical administration): 10 ng/mL/mg dose
Mean progesterone level in uterus ([3]; rat, topical administration): 24 ng/mL/mg dose
solubility [4]: 112 mg/mL (≈ 355 mM)
